These results are taken from patent US20240189389A1, “DRUG WITH PROLONGED ANALGESIC ACTION” (priority 2020, published 2024).

For data set [1] the following is noted: reduced only in part with repeated dosing; cited from earlier work.
A further data set deals with ICR male white mice. In words: Formalin test on mice. Type of data set: in vivo. As to conditions: oral, 100 mg/kg (positive control). Here is the method:
Tests are performed on ICR male white mice of 20-30 g body weight. Mice are divided into 4 groups (a control one and experimental ones) of 9 mice each. The tested HCRG21 peptide is dissolved in a sterile physiological saline solution and is administered intramuscularly at the doses of 0.1 and 1.0 mg/kg. Control animals receive the equivalent volume of sterile physiological saline solution. Ibuprofen at the dose of 100 mg/kg is used as a positive control and is administered to animals orally. 60 minutes later all mice are injected in a hinder paw pad with 20 μl of 2.5% formalin solution. Patterns of pain response are recorded immediately after the injection (a number of paw licking episodes and a hind paw withdrawal time) according to the following schedule:
1st period (acute): for 20 min after the injection patterns are recorded per 1 min with 6-minute intervals (0, 6, 12 and 18 min);
2nd period (tonic): 30 min after the formalin injection patterns are recorded for 20 min per 1 min with 6-minute intervals (30, 36, 42, 48 min).
The analgesic effect is evaluated by the decrease of the duration of pain response patterns relative to control animals (FIG. 9). The results are statistically processed, statistical significance of differences of the results of control and experimental group is determined using the Student's test.

A further data set deals with T1, TRPV1 (Homo sapiens, UniProt Q8NER1).
T1 construct: host or cells: human subjects (in vivo)
The settings on record: high dose (400 mg); cited from earlier work.

For data set [2] the following is noted: phase I clinical trial data; cited from earlier work.

T1 sequence (Q8NER1 whole entry): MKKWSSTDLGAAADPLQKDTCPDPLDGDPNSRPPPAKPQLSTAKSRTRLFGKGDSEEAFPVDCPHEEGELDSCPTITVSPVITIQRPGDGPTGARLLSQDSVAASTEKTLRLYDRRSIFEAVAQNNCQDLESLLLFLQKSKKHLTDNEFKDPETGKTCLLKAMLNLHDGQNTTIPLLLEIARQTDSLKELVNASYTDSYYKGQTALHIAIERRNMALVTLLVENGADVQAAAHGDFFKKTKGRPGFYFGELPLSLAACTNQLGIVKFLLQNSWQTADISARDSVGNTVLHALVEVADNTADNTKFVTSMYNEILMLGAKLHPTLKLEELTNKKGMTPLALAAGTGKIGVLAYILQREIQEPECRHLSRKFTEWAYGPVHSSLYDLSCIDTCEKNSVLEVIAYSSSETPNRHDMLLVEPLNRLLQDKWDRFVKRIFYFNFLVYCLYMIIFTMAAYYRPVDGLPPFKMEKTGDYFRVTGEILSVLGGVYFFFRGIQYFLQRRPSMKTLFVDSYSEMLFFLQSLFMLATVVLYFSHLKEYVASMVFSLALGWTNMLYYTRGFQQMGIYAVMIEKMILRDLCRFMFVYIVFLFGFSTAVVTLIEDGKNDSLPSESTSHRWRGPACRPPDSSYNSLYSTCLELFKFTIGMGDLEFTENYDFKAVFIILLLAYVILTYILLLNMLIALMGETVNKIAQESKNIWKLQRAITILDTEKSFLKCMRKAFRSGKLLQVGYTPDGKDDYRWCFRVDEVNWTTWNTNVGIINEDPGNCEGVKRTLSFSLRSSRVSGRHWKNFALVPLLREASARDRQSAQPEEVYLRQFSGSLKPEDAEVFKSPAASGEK

Turning to `CC(=O)Nc1nc2c(Oc3cc(-c4ccc(C(F)(F)F)cc4)ncn3)cccc2s1` [AMG-517], in data set [1], the “temperature increase in humans” value was “high and steady temperature increase”.

For the compound `CC(C)Cc1ccc(C(C)C(=O)O)cc1` (stereo not shown) [Ibuprofen, ibuprofen], in the data set with ICR male white mice, the “analgesic properties compared with HCRG21” value was “concedes much to the HCRG21 peptide”.

As to `O=C(Nc1ccccc1Br)N[C@@H]1CCN(c2ccc(C(F)(F)F)cn2)C1` [SB-705498], the “pharmacodynamic activity in the reduction of inflammation induced by heat injuries, UV radiation and capsaicin” value at TRPV1 is listed as “evidences a target pharmacodynamic activity”. Besides, in data set [2], the elimination half-life is 35 to 93 h.
